From ChEMBL document CHEMBL2021911 (Bioorg Med Chem Lett, 2012)
Calls of active or inactive are those of the source. The calls are words filed in the database; no cut-off is given here.

Experiments:
[1] = biological target: T1, Muscarinic acetylcholine receptor M1 (Homo sapiens) (UniProt P11229); assay: Agonist activity at human muscarinic M1 receptor at 30 uM relative to acetylcholine; format: functional
T1 sequence (whole entry): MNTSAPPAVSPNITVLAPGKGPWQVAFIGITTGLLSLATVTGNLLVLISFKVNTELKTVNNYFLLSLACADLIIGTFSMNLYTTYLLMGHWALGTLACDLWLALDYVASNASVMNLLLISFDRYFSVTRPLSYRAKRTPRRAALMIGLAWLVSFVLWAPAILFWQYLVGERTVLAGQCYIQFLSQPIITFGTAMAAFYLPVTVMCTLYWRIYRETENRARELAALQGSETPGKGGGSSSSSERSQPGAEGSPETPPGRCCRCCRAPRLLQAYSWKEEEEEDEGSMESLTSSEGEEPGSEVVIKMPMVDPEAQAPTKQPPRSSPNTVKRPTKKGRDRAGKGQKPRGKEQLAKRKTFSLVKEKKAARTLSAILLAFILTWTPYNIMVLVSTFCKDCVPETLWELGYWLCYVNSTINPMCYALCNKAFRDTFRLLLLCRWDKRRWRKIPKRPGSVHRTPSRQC

[2] = biological target: T2, Muscarinic acetylcholine receptor M2 (Homo sapiens, UniProt P08172); assay: Agonist activity at human muscarinic M2 receptor by calcium mobilization assay; format: functional
T2 sequence (P08172 whole entry): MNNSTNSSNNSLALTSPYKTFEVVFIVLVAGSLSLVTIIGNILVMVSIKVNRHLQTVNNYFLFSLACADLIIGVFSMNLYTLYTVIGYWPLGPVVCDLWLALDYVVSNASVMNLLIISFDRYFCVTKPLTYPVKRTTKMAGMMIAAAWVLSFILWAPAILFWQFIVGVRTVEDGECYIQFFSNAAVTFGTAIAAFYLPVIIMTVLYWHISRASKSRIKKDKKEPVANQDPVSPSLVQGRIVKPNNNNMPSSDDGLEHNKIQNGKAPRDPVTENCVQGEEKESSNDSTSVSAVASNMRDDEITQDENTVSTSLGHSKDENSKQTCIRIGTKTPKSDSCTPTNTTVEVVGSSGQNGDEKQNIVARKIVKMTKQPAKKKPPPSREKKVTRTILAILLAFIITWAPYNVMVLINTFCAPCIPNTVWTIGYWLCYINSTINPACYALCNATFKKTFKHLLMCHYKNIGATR

[3] = biological target: T1, Muscarinic acetylcholine receptor M1 (Homo sapiens); assay: Agonist activity at human muscarinic M1 receptor expressed in TREx293 cells assessed as increase of soluble APPalpha release at 2 uM; format: functional, cell-based; settings: HEK293
[4] = biological target: T3, Muscarinic acetylcholine receptor M3 (Homo sapiens, UniProt P20309); assay: Agonist activity at human muscarinic M3 receptor by calcium mobilization assay; format: functional
Target sequence in this assay (P20309 whole entry): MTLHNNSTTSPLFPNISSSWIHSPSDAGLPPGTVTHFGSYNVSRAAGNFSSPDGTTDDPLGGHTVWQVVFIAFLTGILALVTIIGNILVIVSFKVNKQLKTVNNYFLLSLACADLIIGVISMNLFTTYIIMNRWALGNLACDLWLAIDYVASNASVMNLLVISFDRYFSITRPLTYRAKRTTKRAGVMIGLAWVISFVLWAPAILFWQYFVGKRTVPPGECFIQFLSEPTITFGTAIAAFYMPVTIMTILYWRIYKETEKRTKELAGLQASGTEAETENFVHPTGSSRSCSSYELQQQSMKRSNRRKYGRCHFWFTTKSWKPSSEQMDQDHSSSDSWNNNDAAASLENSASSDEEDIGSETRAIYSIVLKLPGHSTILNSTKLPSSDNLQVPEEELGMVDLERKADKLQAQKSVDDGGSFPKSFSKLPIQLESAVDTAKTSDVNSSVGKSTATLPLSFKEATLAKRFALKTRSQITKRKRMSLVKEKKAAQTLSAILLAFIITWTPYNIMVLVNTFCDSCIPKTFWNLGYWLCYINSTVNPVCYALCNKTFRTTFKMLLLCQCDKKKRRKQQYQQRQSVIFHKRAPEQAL

[5] = biological target: T4, Muscarinic acetylcholine receptor M5 (Homo sapiens, UniProt P08912); assay: Agonist activity at human muscarinic M5 receptor by calcium mobilization assay; format: functional
T4 sequence (P08912 whole entry): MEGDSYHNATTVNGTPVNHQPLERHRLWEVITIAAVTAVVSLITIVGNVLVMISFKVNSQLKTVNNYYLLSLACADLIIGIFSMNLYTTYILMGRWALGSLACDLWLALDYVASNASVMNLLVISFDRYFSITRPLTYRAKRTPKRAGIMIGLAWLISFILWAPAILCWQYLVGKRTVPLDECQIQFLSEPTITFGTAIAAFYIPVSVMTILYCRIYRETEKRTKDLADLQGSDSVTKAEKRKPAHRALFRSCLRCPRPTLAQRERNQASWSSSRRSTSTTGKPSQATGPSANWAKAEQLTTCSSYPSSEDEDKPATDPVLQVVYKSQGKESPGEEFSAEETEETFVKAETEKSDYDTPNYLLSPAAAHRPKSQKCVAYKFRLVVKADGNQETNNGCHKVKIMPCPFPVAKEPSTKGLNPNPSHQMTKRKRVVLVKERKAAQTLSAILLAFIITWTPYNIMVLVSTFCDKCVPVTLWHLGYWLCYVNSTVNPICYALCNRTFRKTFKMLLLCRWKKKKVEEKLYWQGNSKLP

[6] = biological target: T5, Muscarinic acetylcholine receptor M1 (Homo sapiens, UniProt P11229); assay: Agonist activity at human muscarinic M1 receptor; format: functional; settings: read-out: EC50
T5 sequence (P11229 whole entry): T1 sequence (whole entry)

[7] = biological target: T6, Muscarinic acetylcholine receptor M5 (Homo sapiens) (UniProt P08912); assay: Agonist activity at human muscarinic M5 receptor at 30 uM by calcium mobilization assay relative to acetylcholine; format: functional
T6 sequence (whole entry): T4 sequence (P08912 whole entry)

[8] = biological target: T7, Muscarinic acetylcholine receptor M4 (Homo sapiens, UniProt P08173); assay: Agonist activity at human muscarinic M4 receptor by calcium mobilization assay; format: functional
T7 sequence (P08173 whole entry): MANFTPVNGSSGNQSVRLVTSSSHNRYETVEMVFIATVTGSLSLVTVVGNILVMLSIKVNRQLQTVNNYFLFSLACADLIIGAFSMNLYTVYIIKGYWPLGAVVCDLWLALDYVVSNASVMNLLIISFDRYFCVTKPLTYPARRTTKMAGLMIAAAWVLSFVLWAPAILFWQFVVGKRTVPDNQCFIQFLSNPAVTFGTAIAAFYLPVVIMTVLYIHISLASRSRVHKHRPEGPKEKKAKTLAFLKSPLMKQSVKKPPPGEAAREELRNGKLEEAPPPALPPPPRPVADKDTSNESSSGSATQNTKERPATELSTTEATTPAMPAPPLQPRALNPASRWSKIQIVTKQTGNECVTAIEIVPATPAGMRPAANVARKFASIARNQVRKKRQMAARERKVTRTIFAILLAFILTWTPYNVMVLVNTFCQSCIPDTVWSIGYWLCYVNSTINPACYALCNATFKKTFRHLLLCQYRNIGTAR

[9] = biological target: T1, Muscarinic acetylcholine receptor M1 (Homo sapiens); assay: Agonist activity at human muscarinic M1 receptor at 30 uM by calcium mobilization assay relative to acetylcholine; format: functional
[10] = biological target: T8, Muscarinic acetylcholine receptor M2 (Homo sapiens) (UniProt P08172); assay: Agonist activity at human muscarinic M2 receptor at 30 uM by calcium mobilization assay relative to acetylcholine; format: functional
T8 sequence (whole entry): T2 sequence (P08172 whole entry)

[11] = biological target: T7, Muscarinic acetylcholine receptor M4; assay: Antagonist activity at human muscarinic M4 receptor by calcium mobilization assay; format: functional
[12] = biological target: T5, Muscarinic acetylcholine receptor M1; assay: Agonist activity at human muscarinic M1 receptor by calcium mobilization assay; format: functional
[13] = biological target: T9, Muscarinic acetylcholine receptor M4 (Homo sapiens) (UniProt P08173); assay: Antagonist activity at human muscarinic M4 receptor assessed as remaining activity measured as percentage of maximum response generated from 80% of saturating dose of ACh at 30 uM by calcium mobilization assay; format: functional
T9 sequence (whole entry): T7 sequence (P08173 whole entry)

[14] = biological target: T3, Muscarinic acetylcholine receptor M3; assay: Antagonist activity at human muscarinic M3 receptor by calcium mobilization assay
Target sequence in this assay (P20309 whole entry): as the sequence (P20309 whole entry) above

[15] = biological target: T2, Muscarinic acetylcholine receptor M2; assay: Antagonist activity at human muscarinic M2 receptor by calcium mobilization assay; format: functional
[16] = biological target: T3, Muscarinic acetylcholine receptor M3; assay: Antagonist activity at human muscarinic M3 receptor assessed as remaining activity measured as percentage of maximum response generated from 80% of saturating dose of ACh at 30 uM by calcium mobilization assay; format: functional
Target sequence in this assay (P20309 whole entry, looked up): as the sequence (P20309 whole entry) above

[17] = biological target: T4, Muscarinic acetylcholine receptor M5; assay: Antagonist activity at human muscarinic M5 receptor by calcium mobilization assay; format: functional
[18] = biological target: T8, Muscarinic acetylcholine receptor M2 (Homo sapiens); assay: Antagonist activity at human muscarinic M2 receptor assessed as remaining activity measured as percentage of maximum response generated from 80% of saturating dose of ACh at 30 uM by calcium mobilization assay; format: functional
[19] = biological target: T3, Muscarinic acetylcholine receptor M3; assay: Agonist activity at human muscarinic M3 receptor at 30 uM by calcium mobilization assay relative to acetylcholine; format: functional
Target sequence in this assay (P20309 whole entry, looked up): as the sequence (P20309 whole entry) above

[20] = biological target: Muscarinic acetylcholine receptors; M1 & M2 (Homo sapiens) (UniProt P11229+P08172); assay: Selectivity ratio of EC50 for human muscarinic M2 receptor to EC50 for human muscarinic M1 receptor
[21] = AUC in rat at 1 mg/kg, iv; format: ADME, organism-based; parameters: dose 1 mg/kg, route intravenous; settings: plasma
[22] = Half life in rat at 1 mg/kg, iv and 10 mg/kg, po; format: ADME, organism-based; settings: in vivo
[23] = biological target: T9, Muscarinic acetylcholine receptor M4 (Homo sapiens); assay: Agonist activity at human muscarinic M4 receptor at 30 uM by calcium mobilization assay relative to acetylcholine; format: functional
[24] = Volume of distribution at steady state in rat at 1 mg/kg, iv and 10 mg/kg, po; format: ADME, organism-based; settings: in vivo, read-out: Vdss
[25] = Oral bioavailability in rat at 10 mg/kg; format: ADME, organism-based; settings: in vivo
[26] = AUC in rat at 10 mg/kg, po; format: ADME, organism-based; parameters: dose 10 mg/kg, route oral; settings: plasma
[27] = Clearance in rat at 1 mg/kg, iv and 10 mg/kg, po; format: ADME, organism-based; settings: in vivo

SMILES | Activity [1] [%] | Activity [3] | EC50 [4] | EC50 ([5]; read-out: EC50) [µM] | EC50 [6] [µM] | Activity [7] [%] | EC50 [8] | Activity [9] [%] | IC50 [11] | EC50 [12] [µM] | EC50 [2] | Activity [13] [%] | IC50 [15] | IC50 ([11]; read-out: IC50) [µM] | further results
CCOC(=O)N1C2CCC1CC(N1CCC[C@@H](NC(=O)c3ccccc3)C1)C2 (mixture of isomers) | 75 | Active | Not Active | > 10 | 0.84 | 21 | Not Active | 65 | Not Active | 0.35 | – | – | – | – | EC50 ([2]; read-out: EC50): > 10 µM; Activity [10]: 27%
CCOC(=O)N1C[C@H]2CC[C@@H](C1)[C@H]2NCCNC(=O)c1ccccc1 | 53 | Active | – | 2.8 | 0.092 | 31 | – | 46 | – | 0.018 | Not Active | 48 | Not Active | > 10 | IC50 [14]: > 10 µM; Activity [16]: 45%
CCOC(=O)N1[C@@H]2CC[C@H]1C[C@@H](NCCNC(=O)c1ccccc1)C2 | 34 | Active | – | – | 0.11 | – | – | 37 | – | – | – | 2 | – | 3.1 | IC50 [14]: > 10 µM; IC50 ([17]; read-out: IC50): 4.9 µM; IC50 ([15]; read-out: IC50): > 10 µM; Activity [18]: 15%; Activity [16]: 13%
CCOC(=O)N1[C@@H]2CC[C@H]1C[C@H](NCCNC(=O)c1ccccc1)C2 | 49 | Active | Not Active | – | 0.97 | – | Not Active | 57 | Not Active | – | Not Active | – | Not Active | – | EC50 [5]: Not Active; IC50 [17]: Not Active
CCCCC1CCN(CCCN2C(=O)COc3cc(F)ccc32)CC1 | – | – | – | 1 | – | 28 | – | 81 | – | 0.041 | – | 26 | – | > 10 | Activity [19]: 19%; EC50 ([4]; read-out: EC50): 5.9 µM; IC50 ([15]; read-out: IC50): > 10 µM; Activity [18]: 30%
CCOC(=O)N1CCC(NCCNC(=O)c2ccccc2C)CC1 | 35 | Active | Not Active | – | 1.6 | – | Not Active | 34 | Not Active | 2.6 | Not Active | – | Not Active | – | EC50 [5]: Not Active; IC50 [17]: Not Active
CCOC(=O)N1C[C@H]2CC[C@@H](C1)[C@H]2NCCNC(=O)c1cccc(Cl)c1 | 52 | – | Not Active | 4.2 | 0.047 | 22 | – | 58 | – | 0.096 | Not Active | 40 | Not Active | > 10 | –
CCOC(=O)N1C2CCC1CC(N1CCC[C@@H](NC(=O)c3ccccc3C)C1)C2 (mixture of isomers) | 75 | Active | – | 3.7 | 0.059 | 62 | – | 59 | – | 0.017 | – | – | – | – | Ratio EC50 [20]: 100; Activity [19]: 36%; EC50 ([2]; read-out: EC50): 1.8 µM; AUC [21]: 92.2 ng·h/mL; half-life [22]: 46 min; Activity [23]: 28%; EC50 ([4]; read-out: EC50): > 10 µM; Vd [24]: 11.8 L/kg; EC50 ([8]; read-out: EC50): > 10 µM; bioavailability [25]: 70%; AUC [26]: 639 ng·h/mL; Activity [10]: 66%; clearance [27]: 189 mL/min/kg
